# Experimental data from patent US5877165A, “Boronated porhyrins and methods for their use” (priority 1997, dated 1999).
# “Also recorded” adds a separate entry of the source.
# Columns and labels:
# [1] = Hematological, enzymatic and chemical blood analyses and weight change, mice with KHJJ mammary carcinomas (Examples 4-7, Table 1); format: in vivo, BALB/c mice; conditions: NiTCP 160 or BPA 900 μg/gbw; 6-78 hr
# Method: (§1) Female BALB/c mice (Taconic Farms, Germantown, N.Y.) (20-25 g) were implanted with either KHJJ or EMT-6 tumors. For KHJJ tumors, 1-3 mm^3 tumor fragments were implanted subcutaneously (s.c.) in the dorsal thorax of each mouse using an 18-gauge trocar. For EMT-6 tumors, 2.5×10^5 cells were implanted similarly using a 27-gauge needle. EMT-6 tumor cells were grown alternately in vivo and in vitro. Single-cell suspensions were prepared from mouse-grown tumors by trypsinization. These were grown in cell culture for several passages and then were frozen in 10% DMSO and stored in liquid nitrogen. Prior to implantation in mice, the cells were thawed and grown in tissue culture in Alpha-MEM with 10% FBS for several passages. […]
# (§2) Levels of glucose [GLU], blood urea nitrogen [BUN], blood creatinine [BCR], alanine transaminase [ALT], aspartate transaminase [AST], alkaline phosphatase [ALP], total protein [TPR], albumin [ALB], and creatine phosphokinase [CPK] were determined in blood plasma using a Cobas Fara II microanalysis system. Blood platelets [PLT] and white blood cells [WBC] were counted using a Serono-Baker System 9000 automated hematology microanalyzer. […]
# KHJJ mammary carcinomas [2] = experiment: Boron biodistribution, mice with KHJJ mammary carcinomas (Examples 4-7, Table 1); format: in vivo, BALB/c mice; conditions: mouse, in vivo; for Boron Concentration: Blood / Boron Concentration: Brain / Boron Concentration: Tumor: ip, 160 mg/kg
# Method: (§3) Female BALB/c mice (Taconic Farms, Germantown, N.Y.) (20-25 g) were implanted with either KHJJ or EMT-6 tumors. For KHJJ tumors, 1-3 mm^3 tumor fragments were implanted subcutaneously (s.c.) in the dorsal thorax of each mouse using an 18-gauge trocar. For EMT-6 tumors, 2.5×10^5 cells were implanted similarly using a 27-gauge needle. EMT-6 tumor cells were grown alternately in vivo and in vitro. Single-cell suspensions were prepared from mouse-grown tumors by trypsinization. These were grown in cell culture for several passages and then were frozen in 10% DMSO and stored in liquid nitrogen. Prior to implantation in mice, the cells were thawed and grown in tissue culture in Alpha-MEM with 10% FBS for several passages.
# (§4) Under deep halothane anesthesia leading to euthanasia, right ventricular blood was collected in Microtainer (Becton-Dickinson, Rutherford, N.J.) tubes containing EDTA for hematological analyses and boron assays of whole blood and in Microtainer™ tubes containing lithium heparin for chemical analyses and enzyme assays of blood plasma. Tumor, brain, fat, muscle, and liver tissues were sampled at necropsy for boron analyses.
# Direct current plasma-atomic emission spectroscopy [DCP-AES] (ARL/Fisons Model SS-7) was used (detection limit: 0.1 μg/ml). Samples (50-130 mg) were digested at 60° C. with sulfuric acid:nitric acid (1:1). Triton X-100 and water were added to give final concentrations of ≈50 mg tissue/ml, 15% total acid v/v and 5% Triton X-100 v/v. Fat and liver tissues were assayed for ^10 B by prompt-gamma spectroscopy (Fairchild, et al., 1986). The prompt-gamma measurements were multiplied by 5.0 to give the total boron concentrations due to the use of boron of natural isotope abundance in the syntheses of all boronated porphyrins reported.
# Seven mice having KHJJ mammary carcinomas were given one intraperitoneal (i.p.) injection of 900 μg/g body weight of the boron compound presently used for BNCT of malignant brain tumors, p-boronophenylalanine (BPA) complexed with fructose. BPA was prepared in accordance with procedure described in Coderre, et al., 1996 incorporated herein by reference in its entirety as if set forth in full.
# Mice were euthanized during the collection of blood while under Halothane anesthesia. At necropsy, the apparent states of structural integrity, consistency, color or abnormality, if any, of tissues were observed and tumor, brain and liver tissues were collected from each mouse for boron analysis.
# Eight mice having KHJJ mammary carcinomas were injected with the NiTCP solution in the amount of 160 μg NiTCP/g body weight (36 μgB/g body weight) in six i.p. injections over 20 hours.
# Six hours after the mice were last injected with NiTCP, mice were euthanized during the collection of blood while under Halothane anesthesia and right ventricular blood was collected from each mouse for hematological and chemical analysis without pooling the samples. At necropsy, the apparent states of structural integrity, consistency, color, or abnormality, if any, of tissues were observed and tumor, brain and liver tissues were collected from each mouse for boron analysis without pooling the samples.
# Seven mice having KHJJ mammary carcinomas were injected with the NiTCP solution in the amount of 160 μg NiTCP/g body weight (36 μgB/g body weight) in six i.p. injections over 20 hours.
# Sixteen hours after the mice were injected with NiTCP, mice were euthanized during the collection of blood while under Halothane anesthesia and right ventricular blood was collected from each mouse for hematological and chemical analysis without pooling the samples. At necropsy, the apparent states of structural integrity, consistency, color, or abnormality, if any, of tissues were observed and tumor, brain and liver tissues were collected from each mouse for boron analysis. […]
# [3] = Hematological, enzymatic and chemical blood analyses and weight change, mice with KHJJ mammary carcinomas (Examples 8-12, Table 2); format: in vivo, BALB/c mice; conditions: 244 μg/gbw; 17 hr to 4 d
# Method: as §1, §2
# KHJJ mammary carcinomas [4] = experiment: Boron biodistribution, mice with KHJJ mammary carcinomas (Examples 8-12, Table 2); parameters: species or system BALB/c mice; conditions: mouse, in vivo
# Method: as §3, §4
# Direct current plasma-atomic emission spectroscopy [DCP-AES] (ARL/Fisons Model SS-7) was used (detection limit: 0.1 μg/ml). Samples (50-130 mg) were digested at 60° C. with sulfuric acid:nitric acid (1:1). […]
# [5] = Toxicity testing of NiTCP, MnTCP and CuTCP in normal mice (Example 13, Table 3); format: in vivo, BALB/c mice; conditions: 4 days after last of 6 ip injections
# Method: Levels of glucose [GLU], blood urea nitrogen [BUN], blood creatinine [BCR], alanine transaminase [ALT], aspartate transaminase [AST], alkaline phosphatase [ALP], total protein [TPR], albumin [ALB], and creatine phosphokinase [CPK] were determined in blood plasma using a Cobas Fara II microanalysis system. Blood platelets [PLT] and white blood cells [WBC] were counted using a Serono-Baker System 9000 automated hematology microanalyzer.
# Compounds prepared as in Example 1B and 1C were formulated with 6% Cremophor EL [CRM] and 12% propylene glycol [PrG] in saline. Total doses of MnTCP and CuTCP of 174 and 223 μg/g body weight, respectively, were administered to normal BALB/c mice. Each mouse was given 6 intraperitoneal [ip] injections over a period of 32 hours. Mice were euthanized 4 days after the last injection and chemical, enzymatic and hematological analyses of their blood were compared to those of similar mice given NiTCP at a dose of 252 μg/g body weight.
# [6] = total doses up to 272 μg/gbw, n>80 mice (Miura et al., 1996); cited from earlier work
substance,measurement,setting,value
Nickel Tetracarboranylphenylporphyrin [NiTCP],"toxicity, in words",[1],"some minor, evidently transient, weight loss was noted six hours after the last NiTCP injection; also recorded: The BUN levels in mice given NiTCP at all three time points were higher than those in mice given BPA; also recorded: The ALP and ALT were somewhat depressed 78 hours after injections"
same,boron delivered to tumor relative to BPA,KHJJ mammary carcinomas [2],twice the amount of boron to tumor than that of BPA
same,Boron Concentration: Blood,KHJJ mammary carcinomas [2]; 16 h,13.2 (4.2-30.5) μg B/g
same,Boron Concentration: Brain,KHJJ mammary carcinomas [2]; 16 h,3.8 (2.4-5.0) μg B/g
same,Boron Concentration: Tumor,KHJJ mammary carcinomas [2]; 16 h,25.5 (16.2-38.7) μg B/g
same,Boron Concentration: Blood,KHJJ mammary carcinomas [2]; 78 h,0.2 (0.4-5.8) μg B/g
same,Boron Concentration: Brain,KHJJ mammary carcinomas [2]; 78 h,1.7 (0.1-0.2) μg B/g
same,Boron Concentration: Tumor,KHJJ mammary carcinomas [2]; 78 h,17.0 (9.2-28.2) μg B/g
same,"toxicity, in words",[3],non-toxic; also recorded: only slight differences in the results of blood chemical analyses between the NiTCP groups and the solvent-only control groups; also recorded: Weight loss was only observed 17 hours after the last injection of NiTCP
same,"retention of boron in tumor, in words",KHJJ mammary carcinomas [4],the ability to retain the therapeutic amounts of boron in the tumor for several days
same,time before average blood boron concentration falls below 1 ppm,KHJJ mammary carcinomas [4],4 days
same,"toxicity / thrombocytopenia, in words",[5],nontoxic
same,"mortality and toxicity, in words",[6],no mortality (n>80) nor any substantial toxicity
